Experimental data reported in US6469049B1, “Method of treating, preventing or inhibiting central nervous system injuries and diseases” (The United States of America as represented by the …, priority 2000, dated 2002).
Entries after “also recorded” stand apart in the source; their conditions may differ.

Key:
cultured neurons = assay: H2O2-induced oxidative insult in cultured neurons, MTT assay of neuroprotection; assay type: cell-based, rat; conditions: for effect on the neuroprotective efficacy of DHL: H2O2 insult; for % Neuroprotection: 4 h incubation, then 50 μM H2O2 30 min, MTT after 24 h, mean ± SEM
Text: (§1) Primary cultures may be established following the procedures outlined by Koenig, M. L., et al., (1996) Brain Res. 730:143-149, which is herein incorporated by reference. The forebrains of fetal rat pups (embryonic day 15) are isolated and the cells are dispersed by repeated trituration in neuronal culture medium (NCM). NCM comprises a 1:1 ratio of Ham's F-12 (Biofluids, Rockville, Md.) to Basal Medium Eagle (Sigma, St. Louis, Mo.), supplemented with 0.6 g/L of dextrose, 0.35% glutamine and 1% Pen-Strep (Biofluids. Rockville, Md.). Following centrifugation at 900×g for 5 minutes, the cells are plated onto poly-L-lysine-coated 48 well plates at a density of 10^6 cells/ml. To suppress glial growth. the cultures are treated with cytosine arabinoside (10^−5 M) for 4 days. All cultures are maintained in an incubator comprising 5% CO2 at 37° C. for about 6 days to about 15 days prior to use.
Oxidative injury is assessed by using an MTT assay (Sigma, St. Louis, Mo.). About 24 h after exposure to either hemoglobin or an oxidative insult, MTT is added to each test well such that the final concentration of the dye is about 0.15 mg/ml. Plates are returned to the incubator for about 1 hr at which time unincorporated MTU is removed and the plates are allowed to air dry. The purple formazan product indicative of viable cells is then dissolved by adding about 250 μl of acidified isopropanol comprising about 95% isopropanol and about 5% 2N HCl. About 200 μl aliquots are collected and the absorbance of these aliquots are measured on an ELISA plate reader at about 540 nm. Control (untreated) wells are included in each experiment, and viability is calculated as the percentage of mean control values for each plate.
(§2) Cultured neurons were incubated with four DHL concentrations, 3.0, 10.0, 30.0, and 100.0 micromolar of DHL, with or without 10 mM SPBN for four hours. After incubation. an oxidative insult was applied by adding 50 micromolar of H2O2 for 30 minutes after which the medium was removed and replaced with Minimum Essential Medium (MEM) (Sigma. St. Louis, Mo.). After 24 hours, the colormetric MTT assay as described above was conduced to determine amount of neuroprotection.
as §2, with “30.0.” for “30.0,”, “PBN” for “SPBN”, “incubation,” for “incubation.”, “[…]” for “removed and replaced”, “(Sigma,” for “(Sigma.”

[1] = tested on: primary cultures of neurons derived from the forebrains of E-15 rat fetuses; assay: Hemoglobin-induced toxicity in cultured neurons, MTT viability assay; assay type: cell-based
Description: See Koenig et al., (1999) Neurosci. Abs., 25, which is herein incorporated by reference. […] […] Neuronal viability was assessed by using the calorimetric MT assay of succinate dehydrogenase activity. MTT is a calorimetric dye, 3-(4,5-dimethylthiazol-2-yl)-2,5-diphenyltetrazolium bromide, and is available from Sigma. Neuroprotection increased with increasing concentrations of DHLA.
as §1, with “To suppress glial growth. the cultures are treated with cytosine arabinoside (10^−5 M) for 4 days. All cultures are maintained in an incubator comprising 5% CO2 at 37° C. for about 6 days to about 15 days prior to use.” left out
Oxidative injury is assessed by using an MTT assay (Sigma, St. Louis, Mo.). […] About 200 μl aliquots are collected and the absorbance of these aliquots are measured on an ELISA plate reader at about 540 nm. Control (untreated) wells are included in each experiment, and viability is calculated as the percentage of mean control values for each plate.

rats = assay: Experimental spinal cord injury (dynorphin A injection) in rats, motor scores; assay type: in vivo; conditions: rat, about 5 micromoles DHLA intrathecally, 2 hour pretreatment and treatment after injury
Description: Here, about 5 micromoles of DHLA was administered intrathecally as a 2 hour pretreatment. Flaccid paralysis was acutely evident about 10 minutes after injection with dynorphin A and where there was no pretreatment with DHLA or co-treatment with DHLA. […] See Long et al., (1999) Neurosci. Abs. 25, which is herein incorporated reference.

[2] = tested on: cultured mouse hippocampal HT4 cells; conditions: cited from earlier work

**Q.** For `CC(C)(C)[N+]([O-])=Cc1ccccc1S(=O)(=O)O` [SPBN, N-tert-Butyl-α-(2-sulfophenyl)nitrone, reference compound], which “effect on the neuroprotective efficacy of DHL” value (cultured neurons; 10 mM SPBN co-incubated with 3-100 μM DHL) is on record?
**A.** The value was “significantly increased”.

**Q.** For `O=C(O)CCCC[C@@H](S)CCS` (racemic) [DHL, dihydrolipoic acid], which “% Neuroprotection” value (cultured neurons; DHL 3 μM, SPBN 0 mM) is on record?
**A.** Its value is 1.31 ± 5.23%.

**Q.** What about the “% Neuroprotection” value (cultured neurons; DHL 10 μM, SPBN 0 mM) of the same molecule?
**A.** The value was −3.68 ± 5.14%.

**Q.** What about the “% Neuroprotection” value (cultured neurons; DHL 30 μM, SPBN 0 mM) of the same molecule?
**A.** The value was 7.04 ± 7.38%.

**Q.** What about the “% Neuroprotection” value (cultured neurons; DHL 100 μM, SPBN 0 mM) of the same molecule?
**A.** The value was 28.48 ± 5.83%.

**Q.** What about the “% Neuroprotection” value (cultured neurons; Table 2 experiment: DHL 3 μM, PBN 0 mM) of the same molecule?
**A.** Its value is −1.3 ± 7.2%.

**Q.** What about the “% Neuroprotection” value (cultured neurons; Table 2 experiment: DHL 10 μM, PBN 0 mM) of the same molecule?
**A.** The value was 22.2 ± 13.6%.

**Q.** What about the “% Neuroprotection” value (cultured neurons; Table 2 experiment: DHL 30 μM, PBN 0 mM) of the same molecule?
**A.** The value was 22.1 ± 9.7%.

**Q.** What about the “% Neuroprotection” value (cultured neurons; Table 2 experiment: DHL 100 μM, PBN 0 mM) of the same molecule?
**A.** The value was 36.9 ± 9.6%.

**Q.** And the “neuroprotection against hemoglobin-induced toxicity (neuronal viability, MTT)” value ([1]; DHLA co-applied with hemoglobin (no pre-incubation))?
**A.** Its value is “no evidence of neuroprotection”.

**Q.** What about the “neuroprotection against hemoglobin-induced toxicity (neuronal viability, MTT)” value ([1]; pre-incubation about 4 hours, about 0.3 to about 10 micromolar DHLA, then about 10 micromoles hemoglobin for about 24 hours) of the same molecule?
**A.** The value was “protective in a concentration-related manner”.

**Q.** What about the “protection against experimental spinal cord injury (motor scores)” value (rats) of the same molecule?
**A.** Its value is “protective; also recorded: improve motor scores”.

**Q.** Which “effect on the neuroprotective efficacy of DHL” value (cultured neurons; 10 mM PBN co-incubated with 3-100 μM DHL) does the source give for `CC(C)(C)[N+]([O-])=Cc1ccccc1` [PBN, alpha-Phenyl-N-tert-butylnitrone, reference compound] here?
**A.** Its value is “significantly increased”.

**Q.** For `CN(C)CCNC(=O)CCCCC1CCSS1.Cl` (centres unmarked) [LA-plus, 2-(N,N-dimethylamine) ethylamido lipoate-HCL], which “in vitro protection against glutamate-induced loss of GSH, formation of peroxide and neurotoxicity, compared with ALA” value [2] is on record?
**A.** Its value is “better”.
